According to ChEMBL document CHEMBL4804286, “3-amino-4-(4-(4 (dimethylcarbamoyl) phenyl)-1,4-diazepan-1-yl) thieno [2,3-b] pyridine-2-carboxamide for use in cancer therapy and formulations comprising the same” (2020):
Where “and” joins values, the source holds several entries; their conditions need not be identical. Equal values may be shown once.

Assays:
Parameters in all cases: scale not given: the % may be the effect or the level left
[1] = system: Tyrosine-protein kinase ABL1 (Homo sapiens), P00519 [F317L]; assay: Inhibition of phosphorylated human ABL1 F317L mutant assessed as percent of control at 2000 nM by KINOMEscan assay relative to control
[2] = system: Tyrosine-protein kinase ABL1 (Homo sapiens), P00519 [T315I]; assay: Inhibition of phosphorylated human ABL1 T315I mutant assessed as percent of control at 2000 nM by KINOMEscan assay relative to control
[3] = target: Activin receptor type-2A (Homo sapiens) (UniProt P27037); assay: Inhibition of human ACVR2A assessed as percent of control at 2000 nM by KINOMEscan assay relative to control
[4] = target: Activin receptor type-2B (Homo sapiens) (UniProt Q13705); assay: Inhibition of human ACVR2B assessed as percent of control at 2000 nM by KINOMEscan assay relative to control
[5] = target: Atypical kinase COQ8B, mitochondrial (Homo sapiens) (UniProt Q96D53); assay: Inhibition of human ADCK4 assessed as percent of control at 2000 nM by KINOMEscan assay relative to control
[6] = target: Mitogen-activated protein kinase kinase kinase 5 (Homo sapiens) (UniProt Q99683); assay: Inhibition of human ASK1 assessed as percent of control at 2000 nM by KINOMEscan assay relative to control
[7] = target: Peripheral plasma membrane protein CASK (Homo sapiens) (UniProt O14936); assay: Inhibition of human CASK assessed as percent of control at 2000 nM by KINOMEscan assay relative to control
Sequence of Peripheral plasma membrane protein CASK (Homo sapiens) (O14936 whole entry): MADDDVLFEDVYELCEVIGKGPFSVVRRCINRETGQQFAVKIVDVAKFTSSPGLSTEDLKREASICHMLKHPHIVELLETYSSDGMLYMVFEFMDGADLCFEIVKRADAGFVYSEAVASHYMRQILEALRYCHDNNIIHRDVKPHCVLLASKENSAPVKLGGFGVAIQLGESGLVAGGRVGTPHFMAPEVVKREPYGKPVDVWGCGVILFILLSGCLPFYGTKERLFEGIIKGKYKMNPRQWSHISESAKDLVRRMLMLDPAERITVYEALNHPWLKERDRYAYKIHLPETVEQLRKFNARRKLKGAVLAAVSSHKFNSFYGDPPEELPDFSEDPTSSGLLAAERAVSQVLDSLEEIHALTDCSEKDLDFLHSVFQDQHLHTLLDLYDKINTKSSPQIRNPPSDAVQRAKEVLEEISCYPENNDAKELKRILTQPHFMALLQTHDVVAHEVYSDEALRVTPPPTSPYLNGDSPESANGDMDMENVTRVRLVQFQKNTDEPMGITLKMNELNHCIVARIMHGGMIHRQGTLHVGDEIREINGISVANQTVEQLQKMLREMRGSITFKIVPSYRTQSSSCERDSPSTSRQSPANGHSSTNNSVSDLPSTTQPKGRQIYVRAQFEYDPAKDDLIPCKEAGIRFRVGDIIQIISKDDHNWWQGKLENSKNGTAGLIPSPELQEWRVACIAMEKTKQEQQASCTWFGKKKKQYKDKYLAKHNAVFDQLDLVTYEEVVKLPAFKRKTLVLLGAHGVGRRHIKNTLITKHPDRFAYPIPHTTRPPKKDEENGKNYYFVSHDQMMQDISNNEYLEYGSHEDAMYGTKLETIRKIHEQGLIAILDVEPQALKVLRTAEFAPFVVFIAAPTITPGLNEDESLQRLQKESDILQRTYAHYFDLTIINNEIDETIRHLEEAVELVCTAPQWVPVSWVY

[8] = target: Macrophage colony-stimulating factor 1 receptor (Homo sapiens) (UniProt P07333); assay: Inhibition of human autoinhibited CSF1R assessed as percent of control at 2000 nM by KINOMEscan assay relative to control
[9] = system: Epidermal growth factor receptor (Homo sapiens), P00533 [G719C]; assay: Inhibition of human EGFR G719C mutant assessed as percent of control at 2000 nM by KINOMEscan assay relative to control
[10] = system: Epidermal growth factor receptor (Homo sapiens), P00533 [L858R]; assay: Inhibition of human EGFR L858R mutant assessed as percent of control at 2000 nM by KINOMEscan assay relative to control
[11] = system: Epidermal growth factor receptor (Homo sapiens), P00533 [L861Q]; assay: Inhibition of human EGFR L861Q mutant assessed as percent of control at 2000 nM by KINOMEscan assay relative to control
[12] = target: Eukaryotic translation initiation factor 2-alpha kinase 1 (Homo sapiens) (UniProt Q9BQI3); assay: Inhibition of human EIF2AK1 assessed as percent of control at 2000 nM by KINOMEscan assay relative to control
[13] = target: Ephrin type-A receptor 2 (Homo sapiens) (UniProt P29317); assay: Inhibition of human EPHA2 assessed as percent of control at 2000 nM by KINOMEscan assay relative to control
Sequence of Ephrin type-A receptor 2 (Homo sapiens) (P29317 whole entry): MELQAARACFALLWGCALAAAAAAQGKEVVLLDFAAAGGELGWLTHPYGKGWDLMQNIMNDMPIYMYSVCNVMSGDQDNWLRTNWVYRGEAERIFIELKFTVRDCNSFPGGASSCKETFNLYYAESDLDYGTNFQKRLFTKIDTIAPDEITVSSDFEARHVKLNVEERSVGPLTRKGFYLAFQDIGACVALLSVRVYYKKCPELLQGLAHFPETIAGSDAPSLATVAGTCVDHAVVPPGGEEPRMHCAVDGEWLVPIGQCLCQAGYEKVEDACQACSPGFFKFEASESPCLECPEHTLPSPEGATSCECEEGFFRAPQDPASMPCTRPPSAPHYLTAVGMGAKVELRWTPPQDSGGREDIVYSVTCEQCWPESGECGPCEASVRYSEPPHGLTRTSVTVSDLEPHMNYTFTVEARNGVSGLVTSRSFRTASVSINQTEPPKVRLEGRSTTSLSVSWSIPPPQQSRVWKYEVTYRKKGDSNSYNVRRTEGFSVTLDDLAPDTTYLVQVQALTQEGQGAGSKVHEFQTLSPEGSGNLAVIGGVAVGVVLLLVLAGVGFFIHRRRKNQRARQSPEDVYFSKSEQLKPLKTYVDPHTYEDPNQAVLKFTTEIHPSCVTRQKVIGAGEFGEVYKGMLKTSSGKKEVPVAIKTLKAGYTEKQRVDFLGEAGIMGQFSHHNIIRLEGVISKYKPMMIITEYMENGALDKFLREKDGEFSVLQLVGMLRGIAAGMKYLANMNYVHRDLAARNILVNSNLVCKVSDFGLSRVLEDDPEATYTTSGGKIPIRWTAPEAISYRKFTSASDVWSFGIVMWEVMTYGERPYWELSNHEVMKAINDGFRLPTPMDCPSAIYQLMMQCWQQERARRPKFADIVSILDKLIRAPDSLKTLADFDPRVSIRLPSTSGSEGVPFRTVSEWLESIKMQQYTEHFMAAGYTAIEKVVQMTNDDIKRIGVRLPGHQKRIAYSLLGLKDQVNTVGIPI

[14] = target: Fibroblast growth factor receptor 3 (Homo sapiens) (UniProt P22607); assay: Inhibition of human FGFR3 assessed as percent of control at 2000 nM by KINOMEscan assay relative to control
[15] = target: Tyrosine-protein kinase Fgr (Homo sapiens) (UniProt P09769); assay: Inhibition of human FGR assessed as percent of control at 2000 nM by KINOMEscan assay relative to control
Sequence of Tyrosine-protein kinase Fgr (Homo sapiens) (P09769 2-529 limits assumed): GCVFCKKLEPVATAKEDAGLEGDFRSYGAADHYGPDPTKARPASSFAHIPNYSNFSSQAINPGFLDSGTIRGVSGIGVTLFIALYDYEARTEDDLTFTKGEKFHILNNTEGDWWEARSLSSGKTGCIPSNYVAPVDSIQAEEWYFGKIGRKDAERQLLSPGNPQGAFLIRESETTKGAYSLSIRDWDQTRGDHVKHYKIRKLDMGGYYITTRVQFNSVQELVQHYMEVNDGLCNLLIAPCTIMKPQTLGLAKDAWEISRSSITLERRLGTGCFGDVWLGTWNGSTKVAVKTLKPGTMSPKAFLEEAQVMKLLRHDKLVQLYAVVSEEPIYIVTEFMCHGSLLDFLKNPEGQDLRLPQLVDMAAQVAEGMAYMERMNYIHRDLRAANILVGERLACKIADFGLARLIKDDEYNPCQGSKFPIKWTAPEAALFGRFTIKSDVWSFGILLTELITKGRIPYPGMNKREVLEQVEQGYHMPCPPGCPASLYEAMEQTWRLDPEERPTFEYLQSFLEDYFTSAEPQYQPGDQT

[16] = system: Receptor-type tyrosine-protein kinase FLT3 (Homo sapiens), P36888 [K663Q]; assay: Inhibition of human FLT3 K663Q mutant assessed as percent of control at 2000 nM by KINOMEscan assay relative to control
[17] = system: eIF-2-alpha kinase GCN2 (Homo sapiens), Q9P2K8 [S808G]; assay: Inhibition of human GCN2 S808G mutant kinase domain 2 assessed as percent of control at 2000 nM by KINOMEscan assay relative to control
[18] = target: Hormonally up-regulated neu tumor-associated kinase (Homo sapiens) (UniProt P57058); assay: Inhibition of human HUNK assessed as percent of control at 2000 nM by KINOMEscan assay relative to control
[19] = target: Serine/threonine-protein kinase MARK1 (Homo sapiens) (UniProt Q9P0L2); assay: Inhibition of human MARK1 assessed as percent of control at 2000 nM by KINOMEscan assay relative to control
Sequence of Serine/threonine-protein kinase MARK1 (Homo sapiens) (Q9P0L2 whole entry, looked up): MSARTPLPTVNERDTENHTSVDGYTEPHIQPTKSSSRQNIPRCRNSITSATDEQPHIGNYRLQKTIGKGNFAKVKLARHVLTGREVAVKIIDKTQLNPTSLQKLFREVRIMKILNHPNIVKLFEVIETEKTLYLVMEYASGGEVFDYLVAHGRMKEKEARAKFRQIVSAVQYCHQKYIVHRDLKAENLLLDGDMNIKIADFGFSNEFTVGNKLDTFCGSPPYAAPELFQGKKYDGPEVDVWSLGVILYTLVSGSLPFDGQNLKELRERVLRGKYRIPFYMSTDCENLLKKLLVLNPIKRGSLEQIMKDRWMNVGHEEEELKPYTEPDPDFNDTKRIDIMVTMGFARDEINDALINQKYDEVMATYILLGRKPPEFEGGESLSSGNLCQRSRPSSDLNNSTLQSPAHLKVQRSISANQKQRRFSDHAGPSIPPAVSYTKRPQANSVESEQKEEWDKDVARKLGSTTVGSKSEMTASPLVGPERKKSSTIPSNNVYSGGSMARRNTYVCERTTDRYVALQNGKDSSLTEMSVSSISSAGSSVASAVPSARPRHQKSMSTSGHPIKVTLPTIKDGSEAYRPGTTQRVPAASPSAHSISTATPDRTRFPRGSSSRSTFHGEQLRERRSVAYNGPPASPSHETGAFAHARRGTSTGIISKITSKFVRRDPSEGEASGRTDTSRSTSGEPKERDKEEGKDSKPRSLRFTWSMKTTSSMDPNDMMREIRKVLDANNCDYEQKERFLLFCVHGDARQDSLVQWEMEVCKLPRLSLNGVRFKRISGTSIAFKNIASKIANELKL

[20] = target: Serine/threonine-protein kinase 4 (Homo sapiens) (UniProt Q13043); assay: Inhibition of human MST1 assessed as percent of control at 2000 nM by KINOMEscan assay relative to control
[21] = target: Serine/threonine-protein kinase 26 (Homo sapiens) (UniProt Q9P289); assay: Inhibition of human MST4 assessed as percent of control at 2000 nM by KINOMEscan assay relative to control
Sequence of Serine/threonine-protein kinase 26 (Homo sapiens) (Q9P289 2-416 limits assumed): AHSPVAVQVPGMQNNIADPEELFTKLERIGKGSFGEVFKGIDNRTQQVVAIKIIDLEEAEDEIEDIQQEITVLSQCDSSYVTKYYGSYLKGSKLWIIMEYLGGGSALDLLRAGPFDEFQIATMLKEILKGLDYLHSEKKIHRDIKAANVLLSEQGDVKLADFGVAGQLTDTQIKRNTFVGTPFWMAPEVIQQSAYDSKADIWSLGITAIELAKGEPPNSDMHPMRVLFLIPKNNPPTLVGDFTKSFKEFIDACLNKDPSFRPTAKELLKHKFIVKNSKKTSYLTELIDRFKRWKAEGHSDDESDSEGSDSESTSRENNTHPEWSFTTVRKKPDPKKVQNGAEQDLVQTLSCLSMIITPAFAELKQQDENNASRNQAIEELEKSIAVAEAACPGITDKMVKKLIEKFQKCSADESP

[22] = target: Serine/threonine-protein kinase 38-like (Homo sapiens) (UniProt Q9Y2H1); assay: Inhibition of human NDR2 assessed as percent of control at 2000 nM by KINOMEscan assay relative to control
[23] = target: Mitogen-activated protein kinase kinase kinase 14 (Homo sapiens) (UniProt Q99558); assay: Inhibition of human NIK assessed as percent of control at 2000 nM by KINOMEscan assay relative to control
[24] = target: Phosphatidylinositol 3-kinase C2 domain-containing subunit gamma (Homo sapiens) (UniProt O75747); assay: Inhibition of human PIK3C2G assessed as percent of control at 2000 nM by KINOMEscan assay relative to control
[25] = target: Protein kinase C epsilon type (Homo sapiens) (UniProt Q02156); assay: Inhibition of human PRKCE assessed as percent of control at 2000 nM by KINOMEscan assay relative to control
[26] = target: Protein kinase C eta type (Homo sapiens) (UniProt P24723); assay: Inhibition of human PRKCH assessed as percent of control at 2000 nM by KINOMEscan assay relative to control
[27] = target: Protein kinase C theta type (Homo sapiens) (UniProt Q04759); assay: Inhibition of human PRKCQ assessed as percent of control at 2000 nM by KINOMEscan assay relative to control
[28] = target: Ribosomal protein S6 kinase alpha-5 (Homo sapiens) (UniProt O75582); assay: Inhibition of human C-terminal RPS6KA5 kinase domain 2 assessed as percent of control at 2000 nM by KINOMEscan assay relative to control
[29] = target: Serine/threonine-protein kinase TBK1 (Homo sapiens) (UniProt Q9UHD2); assay: Inhibition of human TBK1 assessed as percent of control at 2000 nM by KINOMEscan assay relative to control
[30] = target: Activated CDC42 kinase 1 (Homo sapiens) (UniProt Q07912); assay: Inhibition of human TNK2 assessed as percent of control at 2000 nM by KINOMEscan assay relative to control
Sequence of Activated CDC42 kinase 1 (Homo sapiens) (Q07912 whole entry, looked up): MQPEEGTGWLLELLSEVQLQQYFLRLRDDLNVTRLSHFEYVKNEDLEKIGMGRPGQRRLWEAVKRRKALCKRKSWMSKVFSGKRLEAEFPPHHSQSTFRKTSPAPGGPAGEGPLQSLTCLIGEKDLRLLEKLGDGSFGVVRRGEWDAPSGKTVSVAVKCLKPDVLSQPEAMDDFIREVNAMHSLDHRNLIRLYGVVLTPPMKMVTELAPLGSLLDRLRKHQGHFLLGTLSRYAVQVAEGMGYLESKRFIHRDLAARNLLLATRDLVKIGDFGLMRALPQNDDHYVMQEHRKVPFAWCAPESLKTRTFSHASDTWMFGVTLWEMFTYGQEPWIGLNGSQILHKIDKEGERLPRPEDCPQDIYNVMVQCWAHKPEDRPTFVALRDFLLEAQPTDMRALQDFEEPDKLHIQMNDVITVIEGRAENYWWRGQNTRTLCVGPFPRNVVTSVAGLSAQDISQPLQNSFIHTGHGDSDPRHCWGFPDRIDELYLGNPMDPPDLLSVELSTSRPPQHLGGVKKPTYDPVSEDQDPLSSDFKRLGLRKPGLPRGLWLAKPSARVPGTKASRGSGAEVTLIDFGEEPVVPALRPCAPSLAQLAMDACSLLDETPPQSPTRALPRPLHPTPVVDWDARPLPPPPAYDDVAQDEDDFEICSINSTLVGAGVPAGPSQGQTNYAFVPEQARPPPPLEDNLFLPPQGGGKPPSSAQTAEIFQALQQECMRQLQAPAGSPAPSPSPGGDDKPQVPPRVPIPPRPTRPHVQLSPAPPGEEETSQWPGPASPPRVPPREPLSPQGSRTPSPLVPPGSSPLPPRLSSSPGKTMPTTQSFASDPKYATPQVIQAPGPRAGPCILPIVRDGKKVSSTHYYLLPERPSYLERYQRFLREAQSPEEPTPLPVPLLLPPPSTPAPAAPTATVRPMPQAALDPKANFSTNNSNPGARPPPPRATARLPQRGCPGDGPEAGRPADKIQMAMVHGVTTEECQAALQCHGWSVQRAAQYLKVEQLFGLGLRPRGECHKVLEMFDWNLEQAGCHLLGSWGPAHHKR

[31] = target: Tyrosine-protein kinase Yes (Homo sapiens) (UniProt P07947); assay: Inhibition of human YES assessed as percent of control at 2000 nM by KINOMEscan assay relative to control

CN(C)C(=O)c1ccc(N2CCCN(c3ccnc4sc(C(N)=O)c(N)c34)CC2)cc1
Activity [1]: 97% and 82% | Activity [2]: 100% and 85% | Activity [3]: 95% and 92% | Activity [4]: 100% and 86% | Activity [5]: 95% and 83% | Activity [6]: 100% | Activity [7]: 71% and 96% | Activity [8]: 88% and 83% | Activity [9]: 97% and 100% | Activity [10]: 99% and 93% | Activity [11]: 78% and 100% | Activity [12]: 93% and 78% | Activity [13]: 95% and 100% | Activity [14]: 98% and 99% | Activity [15]: 100% | Activity [16]: 96% and 91% | Activity [17]: 73% and 88% | Activity [18]: 99% and 100% | Activity [19]: 100% | Activity [20]: 100% and 98% | Activity [21]: 95% and 89% | Activity [22]: 99% | Activity ([22]; INHIBITOR): 36% | Activity [23]: 100% and 97% | Activity [24]: 94% and 82% | Activity [25]: 93% and 97% | Activity [26]: 80% and 96% | Activity [27]: 90% and 87% | Activity [28]: 95% and 100% | Activity [29]: 99% and 97% | Activity [30]: 100% | Activity [31]: 99% and 100%
